Here are results for 20 molecules from PubChem BioAssay AID248 (DTP/NCI, 2004).

The assay relates to L1210 leukemia ip in BDF1 mice, survival T/C. Briefly: NCI In Vivo Anticancer Drug Screen. Data for tumor model L1210 Leukemia (intraperitoneal) in B6D2F1 (BDF1) mice. As to conditions: endpoint: mean survival time, higher = longer survival. Summed up:
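Tumor was transplanted into mice, which were then dosed with test compound or vehicle alone. Survival was recorded for each group, and the treated figure was expressed relative to the control figure.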

Setting [1] is: dose: 12.5 mg/kg/injection, schedule: Q04DX002 (ip), vehicle: Klucel (hydroxypropylcellulose) (HPC).
[2] abbreviates: dose: 25.0 mg/kg/injection, schedule: Q04DX002 (ip), vehicle: Klucel (hydroxypropylcellulose) (HPC).
Where [3] appears, read: dose: 50.0 mg/kg/injection, schedule: Q04DX002 (ip), vehicle: Klucel (hydroxypropylcellulose) (HPC).
The mark [4] stands for this setting: dose: 100.0 mg/kg/injection, schedule: Q01DX009 (ip), vehicle: Klucel (hydroxypropylcellulose) (HPC).
[5] abbreviates: dose: 200.0 mg/kg/injection, schedule: Q01DX009 (ip), vehicle: Klucel (hydroxypropylcellulose) (HPC).
Where [6] appears, read: dose: 400.0 mg/kg/injection, schedule: Q01DX009 (ip), vehicle: Klucel (hydroxypropylcellulose) (HPC).
[7] abbreviates: dose: 100.0 mg/kg/injection, schedule: Q04DX002 (ip), vehicle: Klucel (hydroxypropylcellulose) (HPC).
The mark [8] stands for this setting: dose: 400.0 mg/kg/injection, schedule: Q04DX002 (ip), vehicle: Klucel (hydroxypropylcellulose) (HPC).
[9] abbreviates: dose: 100.0 mg/kg/injection, schedule: Q01DX001 (ip), vehicle: saline.
Setting [10] is: dose: 200.0 mg/kg/injection, schedule: Q01DX001 (ip), vehicle: saline.
Where [11] appears, read: dose: 100.0 mg/kg/injection, schedule: Q04DX003 (ip), vehicle: Klucel (hydroxypropylcellulose) (HPC).
Where [12] appears, read: dose: 200.0 mg/kg/injection, schedule: Q04DX003 (ip), vehicle: Klucel (hydroxypropylcellulose) (HPC).

Toxic doses and inconclusive results are not listed.

Regarding `NC(N)=Nc1ccc([N+](=O)[O-])cc1`, the T/C is 103 % of control under setting [1], 98 % of control under setting [2] and 103 % of control under setting [3].

On to `COc1ccc(NC(=O)Nc2cc([N+](=O)[O-])ccc2C)cc1[N+](=O)[O-]`, for which the T/C is, setting by setting: under setting [4], 98 % of control; under setting [5], 96 % of control; under setting [6], 104 % of control.

In the case of `COc1ccc(OC)c2c(C(C)=O)c[nH]c12`, the T/C by setting is: under setting [1], 118 % of control; under setting [2], 112 % of control; under setting [3], 93 % of control.

For `CC(C)CCn1ccc(N)nc1=O`, the T/C is, setting by setting: (dose: 25.0 mg/kg/injection, schedule: Q01DX001 (ip), vehicle: saline with Tween-80) 97 % of control; (dose: 50.0 mg/kg/injection, schedule: Q01DX001 (ip), vehicle: saline with Tween-80) 101 % of control; (dose: 100.0 mg/kg/injection, schedule: Q01DX001 (ip), vehicle: saline with Tween-80) 90 % of control.

Consider `O=NN(Cc1cnc2[nH]c(=O)[nH]c(=O)c2n1)c1ccc(C(=O)NC(CCC(=O)O)C(=O)O)cc1` (stereo unspecified), for which the T/C was 100 % of control (dose: 3.13 mg/kg/injection, schedule: Q01DX009 (ip), vehicle: water); 102 % of control (dose: 6.25 mg/kg/injection, schedule: Q01DX009 (ip), vehicle: water); 88 % of control (dose: 12.5 mg/kg/injection, schedule: Q01DX009 (ip), vehicle: water); 98 % of control (dose: 25.0 mg/kg/injection, schedule: Q01DX009 (ip), vehicle: water); 93 % of control (dose: 50.0 mg/kg/injection, schedule: Q01DX009 (ip), vehicle: water).

Regarding `ClC1CCC[N-]C1.ClC1CCC[N-]C1.[Cl][Pt+2][Cl]` (stereo unspecified), the T/C is 102 % of control (dose: 50.0 mg/kg/injection, schedule: Q04DX003 (ip), vehicle: saline with Tween-80); 104 % of control (dose: 100.0 mg/kg/injection, schedule: Q04DX003 (ip), vehicle: saline with Tween-80); 102 % of control (dose: 200.0 mg/kg/injection, schedule: Q04DX003 (ip), vehicle: saline with Tween-80).

Consider `Cc1cc(C)c(C#N)c(=O)[nH]1`, for which the T/C by setting is: under setting [4], 97 % of control; under setting [7], 100 % of control; under setting [5], 97 % of control; (dose: 200.0 mg/kg/injection, schedule: Q04DX002 (ip), vehicle: Klucel (hydroxypropylcellulose) (HPC)) 92 % of control; under setting [6], 88 % of control; under setting [8], 95 % of control.

`Oc1ccccc1N=Cc1ccc(C=Nc2ccccc2O)cc1`: the T/C (dose: 100.0 mg/kg/injection, schedule: Q01DX009 (ip), vehicle: gum acacia) was 101 % of control; the T/C (dose: 100.0 mg/kg/injection, schedule: Q04DX003 (ip), vehicle: gum acacia) is 100 % of control; the T/C (dose: 200.0 mg/kg/injection, schedule: Q01DX009 (ip), vehicle: gum acacia) was 97 % of control; the T/C (dose: 200.0 mg/kg/injection, schedule: Q04DX003 (ip), vehicle: gum acacia) was 98 % of control; the T/C (dose: 400.0 mg/kg/injection, schedule: Q01DX009 (ip), vehicle: gum acacia) was 107 % of control; the T/C (dose: 400.0 mg/kg/injection, schedule: Q04DX003 (ip), vehicle: gum acacia) was 94 % of control.

Consider `O=S(=O)(Cl)OO/C=C\OOS(=O)(=O)Cl`, for which the T/C reads like this: under setting [9], 101 % of control; under setting [10], 108 % of control.

On to `O=C(CCCC(=O)N/N=C/c1c2ccccc2cc2ccccc12)N/N=C/c1c2ccccc2cc2ccccc12`, for which the T/C by setting is: (dose: 50.0 mg/kg/injection, schedule: Q01DX001 (ip), vehicle: saline) 100 % of control; under setting [9], 102 % of control; under setting [10], 96 % of control; (dose: 400.0 mg/kg/injection, schedule: Q01DX001 (ip), vehicle: saline) 96 % of control.

Consider `O=C1CC2=CCCCc3cccc1c32`, for which the T/C (dose: 100.0 mg/kg/injection, schedule: Q01DX001 (ip), vehicle: carboxymethylcellulose (CMC)) was 93 % of control; the T/C (dose: 200.0 mg/kg/injection, schedule: Q01DX001 (ip), vehicle: carboxymethylcellulose (CMC)) was 93 % of control; the T/C (dose: 400.0 mg/kg/injection, schedule: Q01DX001 (ip), vehicle: carboxymethylcellulose (CMC)) was 93 % of control.

For `COc1cc(N(CCCl)CCCl)c(OC)cc1C=Nc1ccc(-c2nc(Cc3ccccc3)sc2C)cc1`, the T/C was 117 % of control (dose: 4.0 mg/kg/injection, schedule: Q01DX009 (ip), vehicle: other); 123 % of control (dose: 6.0 mg/kg/injection, schedule: Q01DX009 (ip), vehicle: other); 120 % of control (dose: 9.0 mg/kg/injection, schedule: Q01DX009 (ip), vehicle: other); 105 % of control (dose: 12.5 mg/kg/injection, schedule: Q01DX001 (ip), vehicle: carboxymethylcellulose (CMC)); 105 % of control (dose: 25.0 mg/kg/injection, schedule: Q01DX001 (ip), vehicle: carboxymethylcellulose (CMC)); 110 % of control (dose: 44.0 mg/kg/injection, schedule: Q01DX001 (ip), vehicle: carboxymethylcellulose (CMC)). Further, the T/C runs as follows: (dose: 44.0 mg/kg/injection, schedule: Q01DX009 (ip), vehicle: other) 160 % of control; (dose: 66.0 mg/kg/injection, schedule: Q01DX009 (ip), vehicle: carboxymethylcellulose (CMC)) 102 % of control; (dose: 100.0 mg/kg/injection, schedule: Q01DX009 (ip), vehicle: carboxymethylcellulose (CMC)) 88 % of control; (dose: 150.0 mg/kg/injection, schedule: Q01DX001 (ip), vehicle: carboxymethylcellulose (CMC)) 153 % of control.

For the molecule `Cc1ccc2nc(C)ccc2c1`, the T/C runs as follows: (dose: 50.0 mg/kg/injection, schedule: Q01DX001 (ip), vehicle: Klucel (hydroxypropylcellulose) (HPC)) 101 % of control; (dose: 100.0 mg/kg/injection, schedule: Q01DX001 (ip), vehicle: Klucel (hydroxypropylcellulose) (HPC)) 109 % of control; (dose: 200.0 mg/kg/injection, schedule: Q01DX001 (ip), vehicle: Klucel (hydroxypropylcellulose) (HPC)) 107 % of control.

Turning to `CCCCCCCCCCCCCCCc1cc(=O)n(-c2ccc(NC(=O)/C=C/C(=O)O)cc2)n1C`, the T/C reads like this: under setting [11], 98 % of control; under setting [12], 94 % of control.

As for `CN(C=O)C(=S)[S-].CN(C=O)C(=S)[S-].CN(C=O)C(=S)[S-].O=C(Nc1ccc(S(=O)(=O)Nc2ccc(N=Nc3ccc4nc([S-])sc4c3)cc2)cc1)C(N1CC1)(N1CC1)N1CC1.[Pd]`, the T/C (dose: 6.25 mg/kg/injection, schedule: Q01DX009 (ip), vehicle: saline) is 109 % of control; the T/C (dose: 6.25 mg/kg/injection, schedule: Q04DX003 (ip), vehicle: saline) was 108 % of control; the T/C (dose: 12.5 mg/kg/injection, schedule: Q01DX009 (ip), vehicle: saline) was 101 % of control; the T/C (dose: 12.5 mg/kg/injection, schedule: Q04DX003 (ip), vehicle: saline) was 106 % of control; the T/C (dose: 25.0 mg/kg/injection, schedule: Q01DX009 (ip), vehicle: saline) was 98 % of control; the T/C (dose: 25.0 mg/kg/injection, schedule: Q04DX003 (ip), vehicle: saline) was 103 % of control.

Turning to `CCCCN(C)/N=N/c1nn[nH]n1`, the T/C is, setting by setting: under setting [7], 92 % of control; under setting [8], 113 % of control.

For the molecule `CCOC(=O)c1c(C)[nH]c2c1C(=O)C(=O)C=C2`, the T/C under setting [9] is 90 % of control.

Take `COC(=O)C(Br)C(Br)N1C(=O)c2ccccc2C1=O` (stereo unspecified): the T/C is, setting by setting: under setting [4], 98 % of control; under setting [11], 102 % of control; under setting [5], 96 % of control; under setting [12], 105 % of control; under setting [6], 102 % of control; (dose: 400.0 mg/kg/injection, schedule: Q04DX003 (ip), vehicle: Klucel (hydroxypropylcellulose) (HPC)) 97 % of control.

For `CC1CN(Cc2ccccc2)C(=S)NC1=O` (stereo unspecified), the T/C reads like this: (dose: 25.0 mg/kg/injection, schedule: Q01DX Z (ip), vehicle: methylcellulose (MC)) 89 % of control; (dose: 50.0 mg/kg/injection, schedule: Q01DX Z (ip), vehicle: methylcellulose (MC)) 98 % of control.

Turning to `Cc1cc(O)ccc1C1=[N+](C)CC(C)S1` (stereo unspecified), the T/C reads like this: (dose: 12.5 mg/kg/injection, schedule: Q04DX002 (ip), vehicle: saline) 103 % of control; (dose: 25.0 mg/kg/injection, schedule: Q04DX002 (ip), vehicle: saline) 100 % of control; (dose: 50.0 mg/kg/injection, schedule: Q04DX002 (ip), vehicle: saline) 103 % of control.
